The source of these data is PubChem BioAssay (NCI).

Where “and” joins values, the source holds several entries; their conditions need not be identical. Equal entries are not always repeated.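 Interpolation was linear, between the two tested concentrations surrounding the appropriate level; five concentrations were tested over 48 hours in 96-well plates. GI50: concentration for 50% inhibition of growth. TGI denotes the concentration required for complete inhibition of growth.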 Where only a bound is given, the exact number is not on record here.

Some test systems named below: CCRF-CEM leukemia; HCT-116 colon; HL-60(TB) leukemia; HOP-62 NSCLC; HS 578T breast; HT29 colon; K-562 leukemia; SF-268 CNS; SNB-75 CNS; NCI-H460 lung.
Test in all cases: NCI tumour cell line growth inhibition, 48 h

For `C=C(Cl)[C@@](Cl)(CBr)CC[C@@H](Br)C(C)(C)Cl`, the GI50 was 20.3 µM in the assay with CCRF-CEM leukemia; 0.0686 µM in the assay with HL-60(TB) leukemia; 0.208 µM in the assay with HS 578T breast; 1.28 µM in the assay with HT29 colon; 1.7 µM with K-562 leukemia; 1.35 µM with SNB-75 CNS. The TGI with CCRF-CEM leukemia was > 100 µM and 53.6 µM; in the assay on HCT-116 colon it was 1.25 µM and 0.635 µM; with HL-60(TB) leukemia, > 100 µM and 10.5 µM; with HOP-62 NSCLC it was 0.606 µM and 0.304 µM; in the assay on HS 578T breast, 0.741 µM and 2.1 µM; in the assay on HT29 colon it was 4.48 µM and 0.635 µM. Moreover, the TGI in the assay with K-562 leukemia is > 100 µM and 23.5 µM; in the assay with SF-268 CNS, 3.01 µM and 0.838 µM.

On to `Clc1ccc2c(NCCCN3CCN(c4nc(N5CCOCC5)nc5ccccc45)CC3)ccnc2c1`, for which the GI50 with CCRF-CEM leukemia is 1.8 µM; in the assay with HCT-116 colon, 1.25 µM; in the assay with HL-60(TB) leukemia, 1.35 µM; with HS 578T breast, 1.5 µM; in the assay with HT29 colon it was 1.62 µM; with K-562 leukemia it was 0.402 µM. Also, the GI50 was 1.91 µM with NCI-H460 lung, 2.21 µM in the assay with SF-268 CNS and 1.85 µM in the assay with SNB-75 CNS. The TGI in the assay on CCRF-CEM leukemia was 5.73 µM; in the assay with HCT-116 colon it was 2.59 µM; with HL-60(TB) leukemia, 3.95 µM; in the assay on HS 578T breast it was 3.72 µM; with HT29 colon, 3.71 µM; in the assay with K-562 leukemia, 3.75 µM. Moreover, the TGI with NCI-H460 lung stood at 3.84 µM; in the assay on SF-268 CNS, 5.51 µM; in the assay on SNB-75 CNS it was 3.3 µM.

For the compound `COc1cc(/C=C\c2cc(OC)c(OC)c(OC)c2)cc(NS(=O)(=O)c2ccc(Cl)cc2)c1OC`, the GI50 in the assay with CCRF-CEM leukemia was 0.388 µM; with HCT-116 colon, 0.469 µM; with HL-60(TB) leukemia it was 0.249 µM; in the assay on HOP-62 NSCLC, 0.414 µM; with HS 578T breast, 0.351 µM; in the assay on HT29 colon, 0.348 µM. Also, the GI50 with K-562 leukemia was 0.306 µM; with NCI-H460 lung, 0.364 µM; in the assay on SF-268 CNS it was 1.1 µM. Also, the TGI in the assay on CCRF-CEM leukemia is more than 100 µM; in the assay on HCT-116 colon it was more than 100 µM; in the assay on HL-60(TB) leukemia, 0.694 µM; in the assay on HOP-62 NSCLC, more than 100 µM; in the assay on HS 578T breast, more than 100 µM; in the assay with HT29 colon it was 10.2 µM. Also, the TGI with K-562 leukemia is 34.6 µM; with NCI-H460 lung, 51.4 µM; in the assay on SF-268 CNS, more than 100 µM.

Turning to `COc1cc(N(CCC#N)CCC#N)ccc1/C(N=Nc1ccc(C(=O)O)cc1)=N/NC(=O)c1cc(Br)ccc1O`, the GI50 in the assay with CCRF-CEM leukemia was 82.4 µg/mL; with HCT-116 colon it was 62.8 µg/mL; in the assay on HL-60(TB) leukemia, 55.4 µg/mL; in the assay with HS 578T breast, 77.3 µg/mL; in the assay on HT29 colon, 58.5 µg/mL; in the assay on K-562 leukemia, more than 150 µg/mL. Also, the GI50 is 40.9 µg/mL in the assay on NCI-H460 lung, 29.9 µg/mL with SF-268 CNS and 57.2 µg/mL in the assay on SNB-75 CNS. Also, the TGI in the assay with CCRF-CEM leukemia, in the assay with HCT-116 colon, in the assay on HL-60(TB) leukemia, in the assay with HS 578T breast, in the assay on HT29 colon and in the assay with K-562 leukemia was more than 150 µg/mL each time. Also, the TGI is more than 150 µg/mL in the assay on NCI-H460 lung, 119 µg/mL in the assay with SF-268 CNS and 130 µg/mL in the assay with SNB-75 CNS.

For `COc1ccc(-c2cc(-c3ccccc3)nc(NCCNc3ccnc4cc(Cl)ccc34)n2)cc1`, the GI50 in the assay with CCRF-CEM leukemia was 0.306 µM; in the assay with HL-60(TB) leukemia, 1.72 µM; in the assay with HOP-62 NSCLC it was 1.87 µM; in the assay on HS 578T breast, 1.81 µM; with HT29 colon, 1.72 µM; in the assay with K-562 leukemia it was 0.323 µM. For the same compound, the GI50 was 1.92 µM with NCI-H460 lung, 1.78 µM in the assay on SF-268 CNS and 1.6 µM in the assay with SNB-75 CNS. Further, the TGI with CCRF-CEM leukemia turned out to be 1.21 µM; in the assay on HL-60(TB) leukemia it was 3.62 µM; with HOP-62 NSCLC it was 3.7 µM; with HS 578T breast, 3.78 µM; in the assay with HT29 colon, 3.43 µM; in the assay with K-562 leukemia, 1.03 µM. Besides, the TGI in the assay with NCI-H460 lung was found to be 3.72 µM; in the assay with SF-268 CNS, 3.62 µM; with SNB-75 CNS, 3.05 µM.

In the case of `CCOc1ccc(Nc2nc(-c3c(C)nc4ncccn34)cs2)cc1`, the GI50 in the assay with CCRF-CEM leukemia was 0.0291 µM; in the assay on HCT-116 colon, 0.0221 µM; in the assay with HL-60(TB) leukemia, 0.0216 µM; with HOP-62 NSCLC it was 0.0306 µM; in the assay on HS 578T breast, 0.0357 µM; in the assay on K-562 leukemia, less than 0.01 µM. Also, the values for the GI50 with NCI-H460 lung and with SF-268 CNS were 0.0305 µM and 1.53 µM, respectively. Further, the TGI is 17.3 µM with CCRF-CEM leukemia; 11.6 µM in the assay with HCT-116 colon; 0.0706 µM in the assay on HL-60(TB) leukemia; 18.4 µM in the assay with HOP-62 NSCLC; 23.3 µM in the assay on HS 578T breast; more than 100 µM in the assay with K-562 leukemia. Besides, the results for the TGI with NCI-H460 lung and in the assay with SF-268 CNS were 12.5 µM and 19.5 µM, respectively.

Regarding `N#CCC1(n2cc(-c3ncnc4[nH]ccc34)cn2)CN(C2CCN(C(=O)c3ccnc(C(F)(F)F)c3F)CC2)C1`, the GI50 is 54.5 µM in the assay on CCRF-CEM leukemia; more than 100 µM with HL-60(TB) leukemia; more than 100 µM in the assay with HOP-62 NSCLC; 28.1 µM in the assay on HS 578T breast; more than 100 µM in the assay on HT29 colon; 99.2 µM in the assay with K-562 leukemia. In addition, the GI50 was more than 100 µM in the assay on NCI-H460 lung, more than 100 µM in the assay on SF-268 CNS and 25.7 µM in the assay on SNB-75 CNS. Besides, the TGI in the assay with CCRF-CEM leukemia, in the assay with HL-60(TB) leukemia, with HOP-62 NSCLC, in the assay on HS 578T breast, in the assay with HT29 colon and with K-562 leukemia was more than 100 µM throughout. Further, the TGI in the assay on NCI-H460 lung, in the assay on SF-268 CNS and with SNB-75 CNS was more than 100 µM each time.

On to `O=C(Nc1ccc(C(F)(F)F)cc1[N+](=O)[O-])c1cccnc1`, for which the TGI in the assay with CCRF-CEM leukemia, in the assay with HCT-116 colon, in the assay on HL-60(TB) leukemia, in the assay on HOP-62 NSCLC, with HS 578T breast and in the assay on K-562 leukemia was more than 100 µM each time. In addition, the TGI is 36.8 µM in the assay on NCI-H460 lung, 30.6 µM in the assay on SF-268 CNS and more than 100 µM in the assay on SNB-75 CNS.
